Experimental data: patent US20050058611A1, “Preventing and/or combating collagen fiber degradation induced under conditions of natural exposure to sunlight” (L'OREAL, priority 2003, published 2005)

Columns and labels:
[1] = tested on: production of MMP-1 by normal human epidermal keratinocytes; assay: MMP-1 production by normal human epidermal keratinocytes cultured on plastic, ELISA; type: cell-based; conditions: TPA 20 ng/ml, positive control; cell culture supernatant 24 hours after treatment
Description: FIG. 5 illustrates the production of MMP-1 by normal human epidermal keratinocytes. The cells cultured on plastic are exposed to SSR or treated with TPA (20 ng/ml). The MMP-1 content is evaluated by ELISA 24 hours after treatment in the cell culture supernatant.
Human keratinocytes are isolated from normal human skin (breast surgery) and cultured on a nourishing layer of mitomycin-treated 3T3 mouse fibroblasts.
The MMP-1 content is measured by ELISA (Biotrak kit RPN 2610, Amersham Biotech, France) according to the supplier's instructions.
To determine whether the irradiation of SSR type could also modulate the production of MMP-1 by keratinocytes growing on plastic, the cells were exposed to an SSR radiation. The MMP-1 extracellular contents were quantified 24 hours after UV radiation.

[2] = tested on: production of MMP-1 by normal human fibroblasts; assay: Keratinocyte conditioned medium transferred onto fibroblasts; MMP-1 production by ELISA; type: cell-based; conditions: for Production of MMP-1: sodium butyrate 3 mM, fibroblast culture supernatant 24 hours after transfer
Text: Normal human keratinocytes cultured as a monolayer on plastic were subjected to a UV-B radiation (10 mJ/cm^2). The experiment may also be performed in the presence of an SSR as defined in Example 1.
A Philips TL 20 W/12 tube equipped with a Kodacel filter to remove the wavelengths below 290 nm is used as UV-B source.
Just before irradiation, the culture medium of the sub-confluent cells (80-90% of confluence) is replaced with a PBS phosphate buffer to avoid the generation of phototoxic products by the medium. Under these conditions, no loss of viability of the cells is observed at the UV doses used.
After irradiation, the cells were placed in contact with an MEM culture medium free of serum and of growth factor, which are known to interfere with the detection or production of MMP-1, containing or not containing sodium butyrate NaBu (3 mM).
The conditioned medium of the keratinocytes (irradiated or not, in the presence or absence of sodium butyrate) was taken up 24 hours after irradiation and placed in contact with normal human fibroblasts.
The production of MMP-1 detected 24 hours later in the fibroblast culture supernatant was quantified by means of the “Biotrak MMP-1 human ELISA system” detection kit sold by Amersham, according to the supplier's indications.
The results are read using a LabSystems microplate reader equipped with a 450 nm filter.
The amount of MMP-1 is calculated relative to a calibration range prepared with a standard supplied with the kit, and is expressed in ng/ml.

CCCCCCCCCCCCCC(=O)O[C@@H]1[C@@H](C)[C@@]2(O)[C@@H](C=C(CO)C[C@]3(O)C(=O)C(C)=C[C@@H]23)[C@H]2C(C)(C)[C@]12OC(C)=O [TPA]
MMP-1 production by keratinocytes [1]: leads to an accumulation of MMP-1 production

CCCC(=O)[O-].[Na+] [sodium butyrate]
Effect on the photoinduced stimulation of MMP-1 production ([2]; UV-B irradiated keratinocyte conditioned medium): capable of preventing this stimulatory effect on MMP-1 production | Production of MMP-1 ([2]; irradiated (UV-B 10 mJ/cm^2) keratinocyte conditioned medium): 16.97 ± 3.7 ng/mL | Inhibition of basal production of MMP-1 (factor) ([2]; non-irradiated condition, versus control conditioned medium): 3 | Production of MMP-1 ([2]; non-irradiated keratinocyte conditioned medium): 4.84 ± 0.36 ng/mL
